From patent US20190076507A1, “Artificial Red Blood Cell Having Ability to Inhibit Conversion of Hemoglobin into Methemoglobin” (Public University Corporation Nara Medical University, priority 2016, published 2019)

Columns and labels:
Assay type in all cases: biochemical
[1] = Catalase (pseudo CAT) activity from change of absorbance at 230 nm of H2O2
Protocol: (§1) The activity of NADH-cytochrome b5 reductase in the above-mentioned purified and concentrated HbCO solution was determined as NADH-ferricyanide reductase activity according to Beutler, E. above. Diluted Hb samples comprising the enzyme to be measured is mixed with a buffer comprising NADH. The mixed solutions were left standing for 10 minutes at 30° C., and then potassium ferricyanide (K3Fe (CN)6), the enzyme substrate, was added to start the enzyme reaction. The decrease of difference of absorbance at 340 nm, a characteristic absorption of NADH, per minute was measured to determine activity unit E (IU/gHb). […] It was reasoned that the heat-labile NADH-cytochrome b5 reductase was eliminated as denatured and insoluble, or denatured and inactivated, due to the introduction of heat treatment during the purifying step. In addition, activities of NADPH metHb reductase and NADPH diaphorase, which correspond to NADPH-flavin reductase are also determined by the above-mentioned methods according to Beutler, E. Diluted blood samples comprising the enzyme to be measured is mixed with a buffer comprising NADPH. The mixed solutions were left standing for 10 minutes at 37° C., and then methylene bleu (MeBl), the enzyme substrate, was added to start the enzyme reaction. The decrease of difference of absorbance at 340 nm, a characteristic absorption of NADPH, per minute was measured to determine activity unit E (IU/gHb). […] Catalase activity of the purified HbCO solution was determined from the change of the absorbance at 230 nm, the absorption wavelength of H2O2, according to Beutler, E. (RED CELL METABOLISM: A MANUAL OF BIOCHEMICAL METHOD, Grune &Stratton, Inc. pp. 105-106 (1987)). […] Pyrogallol was used for measurement of SOD activity (Marklund, S. and Marklund, G., Eur. J. Biochem. 47, 469-474 (1974); Roth, E. F. Jr. and Gilbert, H. S., Anal. Biochem. 137, 50-53(1984)). Pyrogallol is oxidized with oxygen to generate superoxide, and further reacted to generate a yellow dye with absorbance at 420 nm. SOD inhibits this reaction. SOD enzyme activity was determined based on this inhibitory activity. Analyzed specimens were solutions of purified HbO2, HbCO, metHb and solutions thereof further comprising NADH or L-tyrosine In addition, enzyme activity of crude SFHb solution was also determined as a control. […] When NADH and HbO2 were coexisted, however, high CAT and SOD pseudo activities (Table 1). […] The pseudo activity was detected when NADH alone was present, however, the activity was about a tenth ( 1/10) compared with when HbO2 was coexisted. […] There were results showing that this pseudo activity increased as more NADH was added.

[2] = SOD (pseudo SOD) activity, pyrogallol method; settings: ratio
Protocol: as §1

HbO2 [3] = target: T1, HbO2 (Homo sapiens, UniProt P68871+P69905); experiment: Screening of suppressing effect of compounds against autoxidation of HbO2; settings: HbO2 10 g/dL, antioxidant 1 g/dL, 37° C., 24 hours
T1 construct: The Hb released by hemolysis was filtered and collected, with the red blood cell membrane components (stroma) separated and removed; from tissue; host or cells: human red blood cells (expired donated blood); heat-treated, nanofiltered, purified and concentrated HbCO, photoconverted to HbO2
Protocol: NADH was purchased from Oriental Yeast Co. Ltd., and all the rest were purchased from Sigma-Aldrich (St. Louis, Mo., USA). HbCO solution was transferred to an eggplant flask and irradiated with visible light (halogen lamp; LPL Videeoligtvl-302, LPLCO. Ltd., Tokyo, Japan) under oxygen gas flow to convert to HbO2. […] The conversion ratios to metHb were determined from the visible absorption spectrum. The measurement of spectrum between 300 nm to 500 nm was conducted using a spectrophotometer (V-660, Japan Spectroscopic Company (JASCO)) mounted with a device to control the light scattering to the minimum (an integrating sphere). The atmosphere inside of a Thunberg cuvette was replaced with nitrogen gas and the conversion ratios to metHb were determined from the ratios of absorbance at 405 nm (λmax of metHb) and 430 nm (λmax of deoxyHb).

HbO2 [4] = target: T1, HbO2; experiment: Oxidant-promoted metHb conversion in non-encapsulated HbO2 solution with NADH (absorbance at 630 nm); settings: 10 and 40 minutes, vs no NADH
Protocol: To examine the suppression of Hb oxidation by encapsulation of NADH further in detail, similar experiments were carried out for Hb solution which was not encapsulated.
(1) First, metHb conversion supplemented with NOC7 was studied. To a cuvette with an optical path length of 1 cm, 3 mL of phosphate buffered saline, 30 μL of HbO2 solution (1.5 mM), 30 μL of NADH solution (1.5 mM) and 30 μL of NOC (1.5 mM in PBS) were mixed and the change of absorbance at 630 nm, the absorption wavelength of metHb, at 25° C. was immediately monitored for 10 minutes and for 40 minutes (FIGS. 6A and 6B). In the graphs of FIGS. 6A and 6B, the absorbance at 630 nm was put on the vertical axis and incubation time (second) was put on the horizontal axis. The three lines in FIG. 6A represent a change over time of metHb when the solution comprising HbO2 and NADH was supplemented with NOC7 (HbO2+NADH+NOC7), a change over time of metHb when the solution comprising HbO2 but not NADH was supplemented with NOC7 (HbO2+NOC7) and a change over time of metHb when the solution comprising HbO2 was neither supplemented with NADH nor NOC7 (HbO2+water). […] To a cuvette with an optical path length of 1 cm, 3 mL of PBS, 30 μL of HbO2 solution (1.5 mM), 30 μL of NADH solution (1.5 mM) and 30 μL of H2O2 (1.5 mM) were mixed and the change of absorbance at 630 nm at 25° C. was immediately monitored for 10 minutes and for 40 minutes (FIGS. 7A and 7B). In the graphs of FIGS. 7A and 7B, the absorbance at 630 nm was put on the vertical axis and incubation time (second) was put on the horizontal axis. […] To a cuvette with an optical path length of 1 cm, 3 mL of PBS, 30 μL of HbO2 solution (1.5 mM), 30 μL of NADH solution (1.5 mM) and 30 μL of NaNO2 (1.5 mM in PBS) were mixed and the change of absorbance at 630 nm at 25° C. was immediately monitored for 10 minutes and for 40 minutes (FIGS. 8A and […]). In the graphs of FIGS. 8A and […], the absorbance at 630 nm was put on the vertical axis and incubation time (second) was put on the horizontal axis. […]

[5] = target: T2, NADH-cytochrome b5 reductase (Homo sapiens, UniProt P00387); experiment: NADH-cytochrome b5 reductase activity determined as NADH-ferricyanide reductase activity; settings: 30° C., potassium ferricyanide substrate, decrease of absorbance at 340 nm
T2 construct: from tissue; host or cells: human red blood cells (expired donated blood), crude stroma-free haemolysate (SFHb)
T2 sequence (P00387 1-278 isoform P00387-2): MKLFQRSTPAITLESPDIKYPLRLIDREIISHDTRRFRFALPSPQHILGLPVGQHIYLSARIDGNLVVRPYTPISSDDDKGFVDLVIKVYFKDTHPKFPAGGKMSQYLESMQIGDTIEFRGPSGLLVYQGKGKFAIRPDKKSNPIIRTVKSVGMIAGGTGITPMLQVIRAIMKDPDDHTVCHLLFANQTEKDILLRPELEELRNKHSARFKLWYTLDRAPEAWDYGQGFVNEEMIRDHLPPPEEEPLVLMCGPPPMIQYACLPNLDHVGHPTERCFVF
Protocol: For the enzyme for reducing metHb herein, “substantially free of enzyme activity” means that the enzyme activity is 10%, 5%, 3%, 1%, 0.5%, 0.2%, 0.1%, 0.05% or 0.03% or less, or below detectable limits, of enzyme activity of the enzyme for reducing metHb existing in the Hb solution purified and concentrated from blood derived from humans or domestic animals. The enzyme activity of the enzyme for reducing metHb herein disclosed herein is determined, for example, by the following procedure. Determination of NADH-cytochrome b5 reductase may be carried out according to Beutler, E. (RED CELL METABOLISM: A MANUAL OF BIOCHEMICAL METHOD, Grune &Stratton, Inc., pp. 81-82 (1987)). […]
the enzyme activity is measured by tracing the degree of acceleration by adding sample comprising oxygen. The measurement is carried out by measuring the change (decrease) in absorbance at 340 nm which is the characteristic absorption of the consumed NADH.
The activity of NADH-cytochrome b5 reductase in the above-mentioned purified and concentrated HbCO solution was determined as NADH-ferricyanide reductase activity according to Beutler, E. above. Diluted Hb samples comprising the enzyme to be measured is mixed with a buffer comprising NADH. […] The decrease of difference of absorbance at 340 nm, a characteristic absorption of NADH, per minute was measured to determine activity unit E (IU/gHb). […]

NADPH-flavin reductase = target: T3, NADPH-flavin reductase (Homo sapiens, UniProt P30043); experiment: NADPH metHb reductase / NADPH diaphorase (NADPH-flavin reductase) activity with methylene blue; settings: 37° C., methylene blue substrate, decrease of absorbance at 340 nm
T3 construct: from tissue; host or cells: human red blood cells (expired donated blood), crude stroma-free haemolysate (SFHb)
T3 sequence (P30043 1-206): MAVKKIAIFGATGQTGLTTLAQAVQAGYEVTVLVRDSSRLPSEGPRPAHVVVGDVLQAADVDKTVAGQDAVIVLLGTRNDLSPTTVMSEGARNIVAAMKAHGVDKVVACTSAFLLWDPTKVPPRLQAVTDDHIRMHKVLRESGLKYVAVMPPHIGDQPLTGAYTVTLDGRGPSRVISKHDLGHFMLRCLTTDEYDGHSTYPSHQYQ
Protocol: Determination of NADPH-flavin reductase activity may be carried out according to Beutler, E. (RED CELL METABOLISM: A MANUAL OF BIOCHEMICAL METHOD, Grune &Stratton, Inc., pp. 79-80 (1987)). The principle of determination of this method is to measure […]. The reaction of reducing methylene bleu (MeBl) to leucomethylene blue (LeukMeBl) as follows:
NADPH+H^++MeBl→NADP^++LeukMeBl
the reaction is known to be slow. The enzyme activity is measured by tracing the degree of acceleration by adding sample comprising oxygen. The measurement is carried out based on the above-mentioned principle by measuring the change (decrease) in absorbance at 340 nm which is the characteristic absorption of the consumed NADPH.
The activity of NADH-cytochrome b5 reductase in the above-mentioned purified and concentrated HbCO solution was determined as NADH-ferricyanide reductase activity according to Beutler, E. above. Diluted Hb samples comprising the enzyme to be measured is mixed with a buffer comprising NADH. […] The decrease of difference of absorbance at 340 nm, a characteristic absorption of NADH, per minute was measured to determine activity unit E (IU/gHb). […] The decrease of difference of absorbance at 340 nm, a characteristic absorption of NADPH, per minute was measured to determine activity unit E (IU/gHb). […]

T1 sequence (P69905 2-142 limits assumed): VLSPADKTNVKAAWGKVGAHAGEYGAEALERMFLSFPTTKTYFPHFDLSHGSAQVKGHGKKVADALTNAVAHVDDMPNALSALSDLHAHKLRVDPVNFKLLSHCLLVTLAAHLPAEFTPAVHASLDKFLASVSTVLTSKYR
T1 sequence (P68871 2-147 limits assumed): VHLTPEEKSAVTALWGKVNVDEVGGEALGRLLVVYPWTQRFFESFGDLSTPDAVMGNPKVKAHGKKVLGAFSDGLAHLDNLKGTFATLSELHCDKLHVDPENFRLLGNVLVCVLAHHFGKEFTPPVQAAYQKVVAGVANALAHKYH

Row | Compound | CAT pseudo activity of NADH alone compared with when HbO2 was coexisted ([1]; ratio) | SOD pseudo activity of NADH alone compared with when HbO2 was coexisted [2] | metHb conversion (%) (HbO2 [3]) | increase of metHb-specific absorbance at 630 nm (HbO2 [4]; HbO2 solution + H2O2, 25° C.) | increase of metHb-specific absorbance at 630 nm (HbO2 [4]; HbO2 solution + NOC7, 25° C.) | increase of metHb-specific absorbance at 630 nm (HbO2 [4]; HbO2 solution + NaNO2, 25° C.) | NADH-cytochrome b5 reductase activity (activity unit E) [5] | NADH-cytochrome b5 reductase activity (activity unit E) ([5]; listed as Hb solution) | NADPH metHb reductase / NADPH diaphorase (NADPH-flavin reductase) activity (activity unit E) (NADPH-flavin reductase) | NADPH metHb reductase / NADPH diaphorase (NADPH-flavin reductase) activity (activity unit E) (NADPH-flavin reductase; listed as Hb solution) | Catalase activity ([1]; change of absorbance at 230 nm of H2O2, Example 1)
1 | NC(=O)C1=CN([C@@H]2O[C@H](COP(=O)(O)OP(=O)(O)OC[C@H]3O[C@@H](n4cnc5c(N)ncnc54)[C@H](O)[C@@H]3O)[C@@H](O)[C@H]2O)C=CC1 [NADH, nicotinamide adenine dinucleotide (NADH)] | 1/10 | 1/10 | 17% | remarkably suppressed | remarkably suppressed | remarkably suppressed |  |  |  |  | 
2 | purified and concentrated Hb: human Hb purified with heat treatment (60° C., 12 hours) and nanofiltration, concentrated to 40 to 42 g/dL |  |  |  |  |  |  | did not detect any activity | does not show enzymatic activities | below 0.01 IU/gHb | does not show enzymatic activities | ≤ 0.03×10^4 IU/gHb
